Laboratory results reported in patent US11566002B2, “Substituted tetrahydrocyclopenta[C]pyrroles, substituted dihydropyrrolizines, analogues thereof, and methods using same” (priority 2018, dated 2023).

Test system: HBV rcDNA
Assay: HepDE19 assay with bDNA quantitation of HBV rcDNA
Type: cell-based, hepatitis B virus
Conditions: HepDE19 cells, Tet-free medium, 7 day-incubation, rcDNA measured by Quantigene 2.0 bDNA assay, top concentration 25 μM; read-out: DE-19 bDNA EC50
How it was run: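 HepDE19 cells (50,000/well) switched to Tet-free medium, then treated 7 days at 37° C with compounds from 25 μM (½-log, 8-point, duplicate; 0.5% DMSO). rcDNA quantified by bDNA with HBV probes; EC50/EC90 by 4-parameter fit. CC50 from CTG ATP on 5,000 cells/well after 4 days.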

Row | Structure (SMILES) | EC50
1 | Cn1cnc(COC(=O)NC2CCc3c2c(C(F)(F)F)n(C)c3C(=O)Nc2ccc(F)c(Cl)c2)n1 (stereo not shown) [Compound 122] | 450 nM
2 | Cn1cnc(COC(=O)NC2CCc3c2c(Br)n(C)c3C(=O)Nc2ccc(F)c(Cl)c2)n1 (single isomer, unassigned) [Compound 48, (1-Methyl-1H-1,2,4-triazol-3-yl)methyl (3-bromo-1-((3-chloro-4-fluorophenyl)carbamoyl)-2-methyl-2,4,5,6-tetrahydrocyclopenta[c]pyrrol-4-yl)carbamate] | 10 nM
3 | Cn1nnc(COC(=O)NC2CCc3c2cn(C)c3C(=O)Nc2ccc(F)c(Cl)c2)n1 (stereo not shown) [Compound 142, (2-Methyl-1H-tetrazol-5-yl)methyl (1-((3-chloro-4-fluorophenyl)carbamoyl)-2-methyl-2,4,5,6-tetrahydrocyclopenta[c]pyrrol-4-yl)carbamate] | 3200 nM
4 | Cc1c2c(c(C(=O)Nc3ccc(F)c(Cl)c3)n1C)CCC2NC(=O)OCc1c[nH]nn1 (single isomer, unassigned) [Compound 131, (1H-1,2,3-Triazol-4-yl)methyl (1-((3-chloro-4-fluorophenyl)carbamoyl)-2,3-dimethyl-2,4,5,6-tetrahydrocyclopenta[c]pyrrol-4-yl)carbamate] | 1700 nM
5 | Cn1cc2c(c1C(=O)Nc1ccc(F)c(Cl)c1)CCC2NC(=O)OCc1ccccn1 (stereo not shown) [Compound 7, pyridin-2-ylmethyl(1-((3-chloro-4-fluorophenyl)carbamoy1)-2-methyl-2,4,5,6-tetrahydrocyclopenta[c]pyrrol-4-yl)carbamate] | 1400 nM
6 | Cn1cnc(COC(=O)NC2CCc3c2c(C2CC2)n(C)c3C(=O)Nc2ccc(F)c(Cl)c2)n1 (single isomer, unassigned) [Compound 91, (1-Methyl-1H-1,2,4-triazol-3-yl)methyl (1-((3-chloro-4-fluorophenyl)carbamoyl)-3-cyclopropyl-2-methyl-2,4,5,6-tetrahydrocyclopenta[c]pyrrol-4-yl)carbamate] | 22000 nM
7 | Cn1c(C(=O)Nc2ccc(F)c(Cl)c2)c2c(c1C(F)(F)F)C(NC(=O)OCc1cn[nH]n1)CC2 (single isomer, unassigned) [Compound 133, (2H-1,2,3-Triazol-4-yl)methyl (1-((3-chloro-4-fluorophenyl)carbamoyl)-2-methyl-3-(trifluoromethyl)-2,4,5,6-tetrahydrocyclopenta[c]pyrrol-4-yl)carbamate] | 430 nM
8 | Cc1n[nH]nc1COC(=O)NC1CCc2c1cn(C)c2C(=O)Nc1ccc(F)c(Cl)c1 (single isomer, unassigned) [Compound 139, (5-Methyl-2H-1,2,3-triazol-4-yl)methyl (1-((3-chloro-4-fluorophenyl)carbamoyl)-2-methyl-2,4,5,6-tetrahydrocyclopenta[c]pyrrol-4-yl)carbamate] | 3600 nM
9 | Cn1cnc(COC(=O)NC2CCn3c(C(=O)Nc4ccc(F)c(Cl)c4)ccc32)n1 (single isomer, unassigned) [Compound 41, (1-Methyl-1H-1,2,4-triazol-3-yl)methyl (5-((3-chloro-4-fluorophenyl)carbamoyl)-2,3-dihydro-1H-pyrrolizin-1-yl)carbamate] | ≥ 25000 nM
10 | Cn1cc2c(c1C(=O)Nc1ccc(F)c(Cl)c1)CCC2NC(=O)OC[C@@H]1CCC(=O)N1 (single isomer, unassigned) [Compound 119] | 1900 nM
11 | Cn1cc2c(c1C(=O)Nc1ccc(F)c(Cl)c1)CCC2NC(=O)OCC1(C(N)=O)CC(F)(F)C1 (single isomer, unassigned) [Compound 56, (1-Carbamoyl-3,3-difluorocyclobutyl)methyl (1-((3-chloro-4-fluorophenyl)carbamoyl)-2-methyl-2,4,5,6-tetrahydrocyclopenta[c]pyrrol-4-yl)carbamate] | 600 nM
12 | Cn1cc2c(c1C(=O)Nc1ccc(F)c(Cl)c1)CCC2NC(=O)OC[C@H]1CCC(=O)N1 (single isomer, unassigned) [Compound 121] | 4000 nM
13 | Cn1c(Cl)c2c(c1C(=O)Nc1ccc(F)c(Cl)c1)CCC2NC(=O)OCc1nc[nH]n1 (single isomer, unassigned) [Compound 104, (1H-1,2,4-Triazol-3-yl)methyl (3-chloro-1-((3-chloro-4-fluorophenyl)carbamoyl)-2-methyl-2,4,5,6-tetrahydrocyclopenta[c]pyrrol-4-yl)carbamate] | 1900 nM
14 | Cn1c(Cl)c2c(c1C(=O)Nc1ccc(F)c(Cl)c1)CCC2NC(=O)OCc1cn[nH]n1 (single isomer, unassigned) [Compound 106, (2H-1,2,3-Triazol-4-yl)methyl (3-chloro-1-((3-chloro-4-fluorophenyl)carbamoyl)-2-methyl-2,4,5,6-tetrahydrocyclopenta[c]pyrrol-4-yl)carbamate] | 1400 nM
15 | Cn1c(C(=O)Nc2ccc(F)c(Cl)c2)c2c(c1C1CC1)C(NC(=O)OCc1nc[nH]n1)CC2 (single isomer, unassigned) [Compound 98, (1H-1,2,4-Triazol-3-yl)methyl (1-((3-chloro-4-fluorophenyl)carbamoyl)-3-cyclopropyl-2-methyl-2,4,5,6-tetrahydrocyclopenta[c]pyrrol-4-yl)carbamate] | 15000 nM
16 | Cc1c2c(c(C(=O)Nc3ccc(F)c(Cl)c3)n1C)CCC2NC(=O)OCc1ncn(C)n1 (single isomer, unassigned) [Compound 82, (1-Methyl-1H-1,2,4-triazol-3-yl)methyl (1-((3-chloro-4-fluorophenyl)carbamoyl)-2,3-dimethyl-2,4,5,6-tetrahydrocyclopenta[c]pyrrol-4-yl)carbamate] | 110 nM
17 | Cn1cnc(COC(=O)NC2CCCCc3c2cn(C)c3C(=O)Nc2ccc(F)c(Cl)c2)n1 (single isomer, unassigned) [Compound 86, (1-Methyl-1H-1,2,4-triazol-3-yl)methyl (1-((3-chloro-4-fluorophenyl)carbamoyl)-2-methyl-2,4,5,6,7,8-hexahydrocyclohepta[c]pyrrol-4-yl)carbamate] | 160 nM
18 | Cn1ncc(COC(=O)NC2CCc3c2cn(C)c3C(=O)Nc2ccc(F)c(Cl)c2)n1 (single isomer, unassigned) [Compound 129, (2-Methyl-2H-1,2,3-triazol-4-yl)methyl (1-((3-chloro-4-fluorophenyl)carbamoyl)-2-methyl-2,4,5,6-tetrahydrocyclopenta[c]pyrrol-4-yl)carbamate] | 40 nM
19 | Cn1cc2c(c1C(=O)Nc1ccc(F)c(Cl)c1)CCC2NC(=O)OCc1ccccn1 (stereo not shown) [Compound 2, pyridin-2-ylmethyl (1-((3-chloro-4-fluorophenyl)carbamoy1)-2-methyl-2,4,5,6-tetrahydrocyclopenta[c]pyrrol-4-yl)carbamate] | 260 nM
20 | Cn1cnc(COC(=O)NC2CCc3c2cn(C)c3C(=O)Nc2ccc(F)c(Cl)c2)n1 (single isomer, unassigned) [Compound 25, (1-Methyl-1H-1,2,4-triazol-3-yl)methyl (1-((3-chloro-4-fluorophenyl)carbamoyl)-2-methyl-2,4,5,6-tetrahydrocyclopenta[c]pyrrol-4-yl)carbamate] | 3500 nM

Same assay, conditions: Hepatitis B virus, HepDE19, 168 h, HepDE19 cells, Tet-free medium, 7 day-incubation, rcDNA measured by Quantigene 2.0 bDNA assay, top concentration 25 μM; read-out: DE-19 bDNA EC50

Row | Structure (SMILES) | EC50
21 | Cn1cc2c(c1C(=O)Nc1ccc(F)c(Cl)c1)CCC2NC(=O)OCc1nn[nH]n1 (racemic) [Compound 148, (2H-tetrazol-5-yl)methyl (1-((3-chloro-4-fluorophenyl)carbamoyl)-2-methyl-2,4,5,6-tetrahydrocyclopenta[c]pyrrol-4-yl)carbamate] | 1900 nM
22 | Cn1cc2c(c1C(=O)Nc1ccc(F)c(Cl)c1)CCC2NC(=O)OCc1nc[nH]n1 (racemic) [Compound 54, (1H-1,2,4-triazol-3-yl)methyl (1-((3-chloro-4-fluorophenyl)carbamoyl)-2-methyl-2,4,5,6-tetrahydrocyclopenta[c]pyrrol-4-yl)carbamate] | 60 nM
23 | Cn1cnc(COC(=O)NC2CCc3c2cn(C)c3C(=O)Nc2ccnc(C(F)(F)F)c2)n1 (single isomer, unassigned) [Compound 73, (1-methyl-1H-1,2,4-triazol-3-yl)methyl (2-methyl-1-((2-(trifluoromethyl)pyridin-4-yl)carbamoyl)-2,4,5,6-tetrahydrocyclopenta[c]pyrrol-4-yl)carbamate] | 540 nM
24 | CCn1cc2c(c1C(=O)Nc1ccc(F)c(Cl)c1)CCC2NC(=O)C1CC1 (single isomer, unassigned) [Compound 17, N-(3-Chloro-4-fluorophenyl)-4-(cyclopropanecarboxamido)-2-ethyl-2,4,5,6-tetrahydrocyclopenta[c]pyrrole-1-carboxamide] | 4900 nM
25 | Cn1cc2c(c1C(=O)Nc1ccc(F)c(Cl)c1)CCCCC2=O [Compound 72, N-(3-chloro-4-fluorophenyl)-2-methyl-4-oxo-2,4,5,6,7,8-hexahydrocyclohepta[c]pyrrole-1-carboxamide] | 50 nM
26 | CCn1cc2c(c1C(=O)Nc1ccc(F)c(Cl)c1)CCC2NC(=O)C1CC1 (stereo not shown) [Compound 18, N-(3-Chloro-4-fluorophenyl)-4-(cyclopropanecarboxamido)-2-ethyl-2,4,5,6-tetrahydro cyclopenta[c]pyrrole-1-carboxamide] | 350 nM
27 | Cn1cc2c(c1C(=O)Nc1ccc(F)c(Cl)c1)CCCC2NC(=O)OCc1nc[nH]n1 (single isomer, unassigned) [Compound 88, (1H-1,2,4-Triazol-3-yl)methyl (1-((3-chloro-4-fluorophenyl)carbamoyl)-2-methyl-4,5,6,7-tetrahydro-2H-isoindol-4-yl)carbamate] | 510 nM
28 | Cn1cnc(COC(=O)NC2CCCc3c2cn(C)c3C(=O)Nc2ccc(F)c(Cl)c2)n1 (single isomer, unassigned) [Compound 33, (1-Methyl-1H-1,2,4-triazol-3-yl)methyl (1-((3-chloro-4-fluorophenyl)carbamoyl)-2-methyl-4,5,6,7-tetrahydro-2H-isoindol-4-yl)carbamate] | 30 nM
